Experimental data as given in patent publication EP4563149A1, “LURBINECTEDIN, ECUBECTEDIN AND A RELATED COMPOUND FOR USE IN THE TREATMENT OF SKIN CANCERS” (Pharma Mar, S.A., priority 2023, dated 2025).
Like-named read-outs stand apart in the source and are kept apart here.

Columns and labels:
melanoma cells 501mel = assay: Cell cycle analysis by flow cytometry (PI); type: cell-based, human; settings: IC50 concentrations
Method: For cell cycle analysis, 2×10^6 cells were seeded in 6 well plates. […] After 2 washes with cold PBS, cells were incubated with RNAse A and PI for 1h in the dark, before being analyzed on a BD LSRFortessaTM Flow Cytometer. Data were analysed with FlowJo software.

MM074 melanospheres = assay: Melanosphere apoptosis (AnnexinV-APC / propidium iodide); type: cell-based, human; settings: 72h
Method: MM074 proliferative/differentiated cell line were seeded (5×10^4 cells) in ultra-low attachment hydrogel-layered 96 well plates in KO DMEM medium supplemented with 20% KSR, AANE, 2 mM Glutamax, Penicillin/Streptomycin and 100 uM Beta-mercaptoethanol. To allow for melanosphere formation, cells were left to grow for 4 days before drug treatment.
For apoptosis assays with 3D-grown melanoma cells, TrypLe Select 10x reagent (Gibco) was used to dissociate melanospheres to obtain single-cell suspensions. These cells were incubated with AnnexinV-APC (Biolegend) and Propidium Iodide (PI, Biolegend). With bivariant dot plots, it was distinguished between viable (AnnexinV-/PI-), early apoptotic (AnnexinV+/PI-), late apoptotic (AnnexinV+/PI+) and necrotic cells (AnnexinV-/PI+).

[1] = system: 501mel, 501mel^VemuR or SKMEL28 melanoma cells; settings: weekly IV 1.2mg/kg
Method: To investigate the effects of the aforementioned tested drugs in living organisms, it was decided to examine the impact of PM14 and Compound IA on melanoma cell-derived xenograft (CDXs) mouse models. Human 501mel, 501mel^VemuR or SKMEL28 melanoma cells were subcutaneously implanted into the right flank of NSG mice.
Tumor volumes were monitored following weekly IV treatments of PM14 or Comp IA at a concentration of 1.2mg/kg. Treatments commenced (Day 0) when the tumors reached 150 mm^3 in female NSG mice aged 4 to 6 weeks (N=8/group).

501 mel^Vemur cell line = settings: 1.2 mg/kg intravenous
Method: (§1) Female athymic nu/nu mice (Harlan Laboratories Models, S.L. Barcelona, Spain or Envigo, Spain) were utilized for all experiments. Animal were housed in individually ventilated cages Sealsafe® Plus, Techmplast S.P.A.), up to ten per cage on a 12-hour light-dark cycle at 21-23 °C and 40-60 % humidity. Mice were allowed free access to irradiated standard rodent diet (Tecklad 2914C) and sterilized water. Animals were acclimated for at least 5 days prior to tumor implantation with a tumor cell suspension.
(§2) The cell line used are: • 501mel • IGR-37 • SK-Mel-28 • WM-266-4 • LOX-IMVI • 501mel^Vemur
(§3) In xenograft studies with cell lines: • Tumour volume was calculated using the equation […], where a: length (longest diameter) and b: width (shortest diameter) were measured in mm by using digital caliper (Fowler Sylvac, S235PAT). Tumour dimensions and body weights were recorded 2-3 times per week starting from the first day of treatment. • When tumors reached ca. 150-250 mm^3, tumour bearing animals (N = 8-10/group) were randomly allocated into the treatment groups, based on body weight and tumour measurements by using NewLab Oncology Software (version 2.25.06.00). • Comparison between median tumour volume of treated and placebo groups was used for evaluation of the antitumoural efficacy. • Animals were euthanized when their tumours reached ca. 1,500 mm^3 and/or severe necrosis was seen.
(§4) Treatments producing >20 % lethality and/or 20% net body weight loss were considered toxic.
(§5) In these experiments, PM14 and Compound IA, as well as placebo, were intravenously administered once per week for 3 consecutive weeks, on days 0, 7 and 14, whenever it was possible.

[2] = system: WM-266-4 melanoma xenografts; settings: 1.2 mg/kg intravenous
Method: as §1, §2, §3, §4, §5
Table 7. Tumour volume evaluation in WM-266-4 melanoma xenografts with PM14 and Compound IA and placebo.

[3] = system: LOX-IMVI melanoma xenografts; settings: 1.2 mg/kg intravenous
Method: as §1, §2, §3, §4, §5
Tumour volume evaluation in LOX-IMVI melanoma xenografts with PM14 and Compound IA and placebo.

[4] = system: xenografts with various melanoma cell lines; settings: different xenografts, 1.2 mg/kg intravenous once per week for 3 weeks
Method: as §1, §2
as §3, with “seen. […]” for “seen.”

Hermes3A = assay: Cell viability assay (PrestoBlue), 72h
Method: (§6) Cells were grown at 37°C in 5% CO2 (10% for Hermes 3A) and were regularly checked for mycoplasma contamination. […] Melanoma IGR cell lines (IGR37 and IGR39) were grown in RPMI w/o HEPES (Gibco, Invitrogen) supplemented with 15% FCS and gentamycin.
(§7) To determine the IC50 (half maximal inhibitory concentration) of these cells to various inhibitors, cell viability assays were performed.
(§8) After 72h of treatment with different concentrations of the compounds, cells were treated with PrestoBlue reagent according to the manufacturer's instructions. The absorbance per well was measured with a Cellinsight CX5 microplate reader. Data were analyzed using Prism9 statistical software.

IGR37 [5] = assay: Cell viability assay (PrestoBlue), 72h; settings: Homo sapiens, IGR-37, 72 h
Method: Cells were grown at 37°C in 5% CO2 (10% for Hermes 3A) and were regularly checked for mycoplasma contamination. […] Melanoma cell lines 501mel and SKmel28 were grown in RPMI w/o HEPES (Gibco, Invitrogen) supplemented with 10% FCS and gentamycin. Vemurafenib-resistant cells (501melVemuR and MM074VemuR) were additionally supplemented with 1.5 µM of vemurafenib. Melanoma IGR cell lines (IGR37 and IGR39) were grown in RPMI w/o HEPES (Gibco, Invitrogen) supplemented with 15% FCS and gentamycin.
as §7, §8

501mel^VemuR = assay: Cell viability assay (PrestoBlue), 72h; settings: Homo sapiens
Method: Cells were grown at 37°C in 5% CO2 (10% for Hermes 3A) and were regularly checked for mycoplasma contamination. MM patient-derived short-term melanoma cultures (MM011, MM074, MM117, MM029, MM047, MM099) were grown in HAM-F10 (Gibco, Invitrogen) supplemented with 10% Fetal Calf Serum (FCS), 25 mM HEPES, 5.2 mM GLUTAMAX and penicillin-streptomycin. Melanoma cell lines 501mel and SKmel28 were grown in RPMI w/o HEPES (Gibco, Invitrogen) supplemented with 10% FCS and gentamycin. Vemurafenib-resistant cells (501melVemuR and MM074VemuR) were additionally supplemented with 1.5 µM of vemurafenib. Melanoma IGR cell lines (IGR37 and IGR39) were grown in RPMI w/o HEPES (Gibco, Invitrogen) supplemented with 15% FCS and gentamycin.
as §7, §8

MM099 = assay: Cell viability assay (PrestoBlue), 72h; settings: Homo sapiens
Method: as §6, §7, §8

IGR37 [6] = assay: Cell viability assay (PrestoBlue), 72h, last line of Table 2; settings: Homo sapiens, IGR-37, 72 h
Method: as §6, §7, §8

COc1c(C)cc2c(c1O)[C@@H]1[C@@H]3[C@@H]4SC[C@]5(N[C@H](CO)Cc6c5[nH]c5ccccc65)C(=O)OC[C@@H](c5c6c(c(C)c(OC(C)=O)c54)OCO6)N3[C@@H](O)[C@H](C2)N1C [PM14, ecubectedin]
cell cycle progression (melanoma cells 501mel): notable blockade
late apoptotic cells positive for Annexin V and propidium iodide (MM074 melanospheres): substantial population of late apoptotic cells
antitumor activity (tumor volumes) versus placebo-treated group ([1]; N=8/group): statistically significant difference
overall survival ([1]; three CDX models): significant increase
Median Tumour Volume (501 mel^Vemur cell line; days 0, 7 and 14, day 0): 147.9 mm^3
Median Tumour Volume (501 mel^Vemur cell line; days 0, 7 and 14, day 2): 225.2 mm^3
Median Tumour Volume (501 mel^Vemur cell line; days 0, 7 and 14, day 4): 248.4 mm^3
Median Tumour Volume (501 mel^Vemur cell line; days 0, 7 and 14, day 7): 330.4 mm^3
Median Tumour Volume (501 mel^Vemur cell line; days 0, 7 and 14, day 9): 361 mm^3
Median Tumour Volume (501 mel^Vemur cell line; days 0, 7 and 14, day 11): 389.7 mm^3
Median Tumour Volume (501 mel^Vemur cell line; days 0, 7 and 14, day 14): 407.1 mm^3
Median Tumour Volume (501 mel^Vemur cell line; days 0, 7 and 14, day 16): 436.4 mm^3
Median Tumour Volume (501 mel^Vemur cell line; days 0, 7 and 14, day 18): 502 mm^3
Median Tumour Volume (501 mel^Vemur cell line; days 0, 7 and 14, day 21): 555.5 mm^3
Median Tumour Volume (501 mel^Vemur cell line; days 0, 7 and 14, day 23): 674.2 mm^3
Median Tumour Volume (501 mel^Vemur cell line; days 0, 7 and 14, day 25): 757.7 mm^3
Median Tumour Volume (501 mel^Vemur cell line; days 0, 7 and 14, day 28): 839.8 mm^3
Median Tumour Volume (501 mel^Vemur cell line; days 0, 7 and 14, day 30): 882.9 mm^3
Median Tumour Volume (501 mel^Vemur cell line; days 0, 7 and 14, day 35): 863.3 mm^3
Median Tumour Volume (501 mel^Vemur cell line; days 0, 7 and 14, day 37): 871.8 mm^3
Median Tumour Volume (501 mel^Vemur cell line; days 0, 7 and 14, day 39): 948.6 mm^3
Median Tumour Volume (501 mel^Vemur cell line; days 0, 7 and 14, day 42): 1020 mm^3
Median Tumour Volume (501 mel^Vemur cell line; days 0, 7 and 14, day 44): 1,295.1 mm^3
Median Tumour Volume (501 mel^Vemur cell line; days 0, 7 and 14, day 46): 1,582.2 mm^3
Median Tumour Volume ([2]; days 0, 7 and 14, day 0): 169.5 mm^3
Median Tumour Volume ([2]; days 0, 7 and 14, day 3): 115.1 mm^3
Median Tumour Volume ([2]; days 0, 7 and 14, day 5): 118.2 mm^3
Median Tumour Volume ([2]; days 0, 7 and 14, day 7): 136.6 mm^3
Median Tumour Volume ([2]; days 0, 7 and 14, day 10): 133.1 mm^3
Median Tumour Volume ([2]; days 0, 7 and 14, day 12): 109.8 mm^3
Median Tumour Volume ([2]; days 0, 7 and 14, day 14): 138.4 mm^3
Median Tumour Volume ([2]; days 0, 7 and 14, day 17): 129.6 mm^3
Median Tumour Volume ([2]; days 0, 7 and 14, day 19): 119.2 mm^3
Median Tumour Volume ([2]; days 0, 7 and 14, day 21): 150.4 mm^3
Median Tumour Volume ([2]; days 0, 7 and 14, day 24): 137.2 mm^3
Median Tumour Volume ([2]; days 0, 7 and 14, day 26): 146.9 mm^3
Median Tumour Volume ([2]; days 0, 7 and 14, day 28): 197.6 mm^3
Median Tumour Volume ([2]; days 0, 7 and 14, day 34): 388.1 mm^3
Median Tumour Volume ([2]; days 0, 7 and 14, day 41): 727.7 mm^3
Median Tumour Volume ([2]; days 0, 7 and 14, day 45): 1,111.6 mm^3
Median Tumour Volume ([2]; days 0, 7 and 14, day 48): 1,503.6 mm^3
Median Tumour Volume ([3]; days 0, 7 and 14, day 0): 185 mm^3
Median Tumour Volume ([3]; days 0, 7 and 14, day 2): 173.7 mm^3
Median Tumour Volume ([3]; days 0, 7 and 14, day 4): 103.2 mm^3
Median Tumour Volume ([3]; days 0, 7 and 14, day 7): 73.8 mm^3
Median Tumour Volume ([3]; days 0, 7 and 14, day 9): 68.5 mm^3
Median Tumour Volume ([3]; days 0, 7 and 14, day 11): 51.2 mm^3
Median Tumour Volume ([3]; days 0, 7 and 14, day 14): 37.5 mm^3
Median Tumour Volume ([3]; days 0, 7 and 14, day 16): 40.8 mm^3
Median Tumour Volume ([3]; days 0, 7 and 14, day 18): 35.3 mm^3
Median Tumour Volume ([3]; days 0, 7 and 14, day 21): 43.5 mm^3
Median Tumour Volume ([3]; days 0, 7 and 14, day 23): 55.5 mm^3
Median Tumour Volume ([3]; days 0, 7 and 14, day 25): 68.5 mm^3
Median Tumour Volume ([3]; days 0, 7 and 14, day 28): 233.4 mm^3
Median Tumour Volume ([3]; days 0, 7 and 14, day 30): 547.3 mm^3
Median Tumour Volume ([3]; days 0, 7 and 14, day 32): 1,044 mm^3
Median Tumour Volume ([3]; days 0, 7 and 14, day 35): 1,565 mm^3
Median Tumour Volume ([3]; days 0, 7 and 14, day 37): 1,610.4 mm^3
tumor volume compared to the placebo [4]: reduction of the volume tumor
sensitivity of non-cancerous Hermes3A immortalized melanocytes compared with the melanoma cells (Hermes3A; Hermes3A versus melanoma cells): less sensitive
IC50 (Hermes3A; Homo sapiens, Melanocyte, 72 h): 2.89 nM
IC50 (IGR37 [5]): 1.05 nM
IC50 (501mel^VemuR): 1.04 nM
IC50 (MM099): 1.41 nM
IC50 (IGR37 [6]): 0.78 nM
